In patent US20050288215A1, “Inhibition of nuclear export as a treatment for cardiac hypertrophy and heart failure” (priority 2004, published 2005):

Experiments:
Format in all cases: cell-based
[1] = test system: neonatal rat ventricular myocytes (NRVM); assay: RNA dot blot analysis of fetal cardiac gene transcripts; conditions: 48 hrs, LMB 18.5 nM (FIG. 2)
Experimental: (§1) Neonatal rat ventricular myocyte (NRVM) preparation and culture. Hearts were dissected from 1 to 3 day-old Sprague-Dawley rats, minced, and digested with collagenase (Worthington; […]) and pancreatin (Sigma; 1× activity equivalent) in 1× Ads buffer (NaCl [116 mM], HEPES [20 mM; pH 7.4], NaH2PO4 [4.8 mM], KCl [5 mM], MgSO4 [[…]], and glucose [5.5 mM]). Cells were centrifuged through a step gradient of Percoll (Pharmacia) to separate myocytes from fibroblasts, and the myocyte pool was further enriched by pre-plating for 2 hours to remove adherent fibroblasts from the cell population. Cells were cultured overnight on dishes coated with gelatin (Sigma; 0.2%) in DMEM containing fetal bovine serum (FBS) (10%), L-glutamine (2 mM), and penicillin-streptomycin. After overnight culture, cells were washed with serum-free medium and maintained in DMEM supplemented with Neutridoma-SP (Roche Applied Science), which contains albumin, insulin, transferrin, and other defined organic and inorganic compounds, at either 0.1% or 0.3% v/v, as indicated.
RNA analysis. NRVM were plated on gelatin-coated 10 cm dishes (2×10^6 cells/dish). Following the indicated treatments, RNA was isolated from cardiomyocytes using Trizol Reagent (Gibco/BRL). Total RNA ([…]) was vacuum blotted onto nitrocellulose membranes (Bio-Rad) using a 96-well format dot blotter (Bio-Rad). Membranes were blocked in 4×SSC containing SDS (1%), 5× Denhardt's Reagent, sodium pyrophosphate (0.05%), and […] sonicated salmon sperm DNA (4 hrs at […]) and incubated with ^32P-end-labeled oligonucleotide probes (1×10^6 cpm/ml; 14 hrs at […]). Sequences of oligonucleotides were as follows: ANF, 5′-[…]-3; a-SK-actin 5′-[…]-3′; a-MHC 5′-[…]-3′; b-MHC 5′-[…]-3′; GAPDH 5′-[…]-3′). Blots were washed twice with 0.5×SSC containing SDS (0.1%; 10 minutes at […]) and analyzed by autoradiography.

[2] = test system: neonatal rat ventricular myocytes (NRVM); assay: ANF competition ELISA, secreted ANF in culture supernatants; set-up: ANF induction (secreted ANF in culture supernatants): dose or concentration left out as unconfirmed; conditions: 48 hrs
Experimental: as §1, with “After overnight culture, cells were washed with serum-free medium and maintained in DMEM supplemented with Neutridoma-SP (Roche Applied Science), which contains albumin, insulin, transferrin, and other defined organic and inorganic compounds, at either 0.1% or 0.3% v/v, as indicated.” left out
(§2) ANF competition ELISA and total protein measurements. […] Wells were washed 5× with TBS-T and exposed to TMB substrate (Kirkegaard & Perry; […]), which provides a colorimetric readout, for 30 minutes at room temperature. Reactions were terminated with H2SO4 (2N, […]) and absorbance at 450 nm detected using a Fusion Plate Reader (Perkin Elmer/Packard). […] Color development was allowed to proceed for 30 minutes prior to being measured at 595 nm using a micro-titer plate spectrophotometer (Molecular Devices).

[3] = test system: neonatal rat ventricular myocytes (NRVM); assay: ANF protein by indirect immunofluorescence (perinuclear ANF); set-up: key to Perinuclear ANF: +, presence; −, absence; conditions: for Perinuclear ANF: LMB 18.5 nM
Experimental: as §1
Indirect immunofluorescence. NRVM (2.5×105) were plated on gelatin-coated 6-well dishes. Following the indicated treatments, cells were fixed with formalin (10%) in PBS, permeablized and blocked with PBS containing NP-40 (0.1%) and bovine serum albumin (BSA) (3%), and incubated in the same solution, but with primary antibodies for sarcomeric α-actinin (Sigma, mouse monoclonal; 1:200 dilution) or atrial natriuretic factor (ANF) (Peninsula Labs, rabbit polyclonal; 1:200 dilution). Cells were washed five times with PBS and incubated with fluorescein- or cy3-conjugated secondary antibodies (Jackson Labs, goat polyclonal; 1:200 dilution), followed by a brief incubation with Hoechst dye (Molecular Probes). Cells were washed five times in PBS, one time with water and sequentially covered with mounting solution (Molecular Probes, SlowFade) and glass coverslips. Proteins were visualized with an inverted fluorescence microscope (Olympus, BH-2) at 40× magnification and images captured using a digital camera (Roper Scientific, Photometrics).

[4] = test system: neonatal rat ventricular myocytes (NRVM); assay: Viability: calcein AM / ethidium staining (LIVE/DEAD kit); set-up: key to Calcein Fluorescence / Ethidium Fluorescence: +, fluorescence; −, no fluorescence; conditions: for Calcein Fluorescence / Ethidium Fluorescence: PE (20 μM), 48 hrs
Experimental: as §1
(§3) Toxicity measurements. Adenylate kinase (AK) was measured in culture supernatants employing the bioluminescent ToxiLight kit (BioWhittaker) according to the manufacturer's instructions. Assays were run in a 96-well format and values measured using a Fusion Plate Reader (Perkin Elmer/Packard). Cell viability was also assessed using the LIVE/DEAD Viability/Cytotoxicity Kit (Molecular Probes). This kit employs calcein AM fluorescent dye, which is retained by viable cells, and an ethidium homodimer, which only enters cells with damaged membranes.

[5] = test system: neonatal rat ventricular myocytes (NRVM); assay: Sarcomere organization, α-actinin indirect immunofluorescence; set-up: key: +, organized sarcomeres; −, disorganized sarcomeres; conditions: 48 hrs, LMB 18.5 nM
Experimental: as §1
Indirect immunofluorescence. NRVM (2.5×105) were plated on gelatin-coated 6-well dishes. […] Proteins were visualized with an inverted fluorescence microscope (Olympus, BH-2) at 40× magnification and images captured using a digital camera (Roper Scientific, Photometrics).

[6] = test system: neonatal rat ventricular myocytes (NRVM); assay: SERCA2 immunoblot analysis; conditions: 48 hours, LMB 18.5 nM (FIG. 8)
Experimental: as §1
SERCA and MCIP immunoblot analysis. […] Protein concentrations were determined by Bradford Assay (Bio-Rad) and […] total protein resolved by SDS-PAGE with gradient gels (Invitrogen; 4%-20% polyacrylamide). […]

[7] = test system: neonatal rat ventricular myocytes (NRVM); assay: α- and β-myosin heavy chain cytoblot assay
Experimental: as §1
α- and β-myosin heavy chain cytoblot assay. […] Cells were washed three times with PBS containing BSA (1%), luminol (Pierce) was added, and luminescence detected using a Fusion Plate Reader (Perkin Elmer/Packard).

[8] = test system: neonatal rat ventricular myocytes (NRVM); assay: Total cellular protein by Bradford assay
Experimental: as §1, with “After overnight culture, cells were washed with serum-free medium and maintained in DMEM supplemented with Neutridoma-SP (Roche Applied Science), which contains albumin, insulin, transferrin, and other defined organic and inorganic compounds, at either 0.1% or 0.3% v/v, as indicated.” left out
as §2

[9] = test system: neonatal rat ventricular myocytes (NRVM); assay: Toxicity: adenylate kinase (AK) release into culture medium; conditions: 48 hours, LMB 18.5 nM (FIG. 6)
Experimental: as §1, with “After overnight culture, cells were washed with serum-free medium and maintained in DMEM supplemented with Neutridoma-SP (Roche Applied Science), which contains albumin, insulin, transferrin, and other defined organic and inorganic compounds, at either 0.1% or 0.3% v/v, as indicated.” left out
as §3, with “This kit employs calcein AM fluorescent dye, which is retained by viable cells, and an ethidium homodimer, which only enters cells with damaged membranes.” left out

[10] = test system: neonatal rat ventricular myocytes (NRVM); assay: Cell volume measurements by Coulter Counter; conditions: 48 hours
Experimental: as §1
Cell volume measurements. Three-dimensional measurements of isolates NRVM were conducted using a Coulter Model Z2 instrument (Beckman), as previously described (Said et al., 2004). […] Cell volumes are expressed as […].

For CCC(=C/[C@H](C)C/C=C/C(C)=C/[C@@H](C)C(=O)[C@@H](C)[C@H](O)[C@@H](C)C/C(C)=C/C(=O)O)/C=C/[C@@H]1OC(=O)C=C[C@@H]1C [LMB, leptomycin B], the “PE-induced downregulation of α-MyHC transcripts” value [1] was “inhibited the subtle downregulation”, the “PE-induced β-MyHC mRNA expression” value [1] was “repressed” and the “PE-mediated induction of ANF mRNA transcripts” value [1] was “effectively blocked”. For the same molecule, the “PE-mediated induction of α-skeletal actin (α-SK-actin) mRNA transcripts” value [1] was “effectively blocked”, the “ANF induction (secreted ANF in culture supernatants)” value ([2]; low nanomolar concentrations of LMB (FIG. 1)) was “efficiently blocked ANF induction” and the ANF immunostaining ([3]; NRVM stimulated with PE or FBS, LMB present) was “markedly reduced”. The “ANF expression induced by prostaglandin F2a and endothelin-1” value ([3]; NRVM, immunofluorescence, LMB 18.5 nM (Table 3)) was “efficiently blocked ANF expression”, the “Perinuclear ANF” value ([3]; NRVM, stimulus ET-1 (50 nM)) was “−” and the “Perinuclear ANF” value ([3]; NRVM, stimulus FBS (5%)) was “−”. For the same molecule, the “Perinuclear ANF” value ([3]; NRVM, stimulus PE (20 μM)) was “−”, the “Perinuclear ANF” value ([3]; NRVM, stimulus PGF2a (10 μM)) was “−” and the “Ethidium bromide staining (compromised membranes)” value ([4]; LMB-treated cells (Table 5)) was “not significantly stained by ethidium bromide”. The “Calcein dye retention (viability)” value ([4]; LMB-treated cells vs control cells (Table 5)) was “retained calcein dye as effectively as control cells”, the “Calcein Fluorescence” value ([4]; LMB 2.3 nM) was “+” and the “Ethidium Fluorescence” value ([4]; LMB 2.3 nM) was “−”. For the same molecule, the “Calcein Fluorescence” value ([4]; LMB 4.6 nM) was “+”, the “Ethidium Fluorescence” value ([4]; LMB 4.6 nM) was “−” and the “Calcein Fluorescence” value ([4]; LMB 9.25 nM) was “+”. For the same molecule, the “Ethidium Fluorescence” value ([4]; LMB 9.25 nM) was “−”, the “Calcein Fluorescence” value ([4]; LMB 18.5 nM) was “+” and the “Ethidium Fluorescence” value ([4]; LMB 18.5 nM) was “−”. The “Organized Sarcomeres” value ([5]; stimulus FBS (5%)) was “−”, the “Organized Sarcomeres” value ([5]; stimulus PE (20 μM)) was “−” and the “PE-induced downregulation of SERCA2 expression” value [6] was “appeared to repress the modest downregulation”. For the same molecule, the “T3-induced SERCA2 protein expression” value ([6]; T3 (3 nM)) was “failed to alter”, the “PE-induced β-MyHC protein expression” value ([7]; 48 hrs, LMB 18.5 nM (FIG. 3)) was “repressed” and the “T3-mediated coordinate regulation of α- and β-MyHC protein expression” value ([7]; T3 (3 nM), 48 hours, LMB 18.5 nM (FIG. 7)) was “no significant effect”. For the same molecule, the “Agonist-induced increase in total cellular protein content” value ([8]; PE or FBS, 72 hrs (text; FIG. 4 legend 48 hours), LMB 18.5 nM) was “effectively blocked”, the “Adenylate kinase (AK) in culture medium” value [9] was “did not increase AK” and the “Cell size (cell volume, Coulter Counter)” value ([10]; LMB 18.5 nM (FIG. 5)) was “diminished cell size”.

For Cc1ccc2[nH]c3c(c2c1)CCCC3NC(=O)CCl (stereo not drawn) [compound 5219668, 2-chloro-N-(6-methyl-2,3,4,9-tetrahydro-1H-carbazol-1-yl)acetamide], the “ANF induction in response to PE (secreted ANF)” value ([2]; PE (20 μM), 5219668 1.25 μM (FIG. 9)) was “efficiently blocked ANF induction”, the “Agonist-induced increase in protein synthesis (total cellular protein)” value ([8]; PE (20 μM), 48 hours, 5219668 1.25 μM (FIG. 10)) was “effectively blocked the increases” and the “Agonist-induced increase in cell size (cell volume)” value ([10]; PE (20 μM), 5219668 1.25 μM (FIG. 11)) was “effectively blocked the increases”.
